Measurements as given in patent US20240109877A1, “PYRIMIDINES FOR DEGRADING BRUTON'S TYROSINE KINASE” (AbbVie Inc., priority 2022, published 2024).

Experiments:
[1] = target: His-tagged Cereblon/DDB1 complex (Homo sapiens (Human), UniProt Q96SW2); assay: Cereblon Binding Assay (AlphaLISA Human Cereblon Binding Kit, competition); conditions: 10 μM top dose, biotin-labeled ligand competition; read-out: CRBN IC50
Method: Cereblon binding was measured in vitro using an AlphaLISA® Human Cereblon Binding Kit (PerkinElmer, Waltham, MA) according to the manufacturer's protocol (“Alpha” refers to Amplified Luminescent Proximity Homogeneous Assay). In this assay, donor beads and acceptor beads come into proximity through ligand binding to CRBN protein. Excitation of the donor beads provokes the release of singlet oxygen that triggers a cascade of energy transfer reactions to the acceptor beads, resulting in a sharp peak in light emission at 615 nm.
Specifically, nickel chelate acceptor beads (PerkinElmer AL108M) were used to capture a 6XHIS-tagged CRBN protein, and streptavidin-coated donor beads (PerkinElmer 6760002) were used to capture 50 nM biotinylated ligand. Each well included the following: sample or control; HIS-tagged CRBN protein; biotinylated ligand; nickel chelate acceptor beads; and streptavidin donor beads.
Competition Assay: Test compounds in 100% dimethyl sulfoxide were plated onto white, low volume 384 well plates (PerkinElmer Proxiplate 384 plus # 6008289) using an Labcyte Echo acoustic dispenser, in an 11-point dose curve and 3-fold dilution scheme. […] Plates were incubated for 30 minutes at room temperature.
Detection: 10 μL detection reagents were added in low light conditions containing nickel chelate acceptor beads and streptavidin donor beads (Perkin Elmer 6760002), resulting in a final concentration 20 ng/ml. Plates were incubated 1 hour and read on a PerkinElmerTM Envision™ plate reader (680 nm excitation and […] settings). The IC50 of each compound was determined by calculating percent inhibition from no drug and no protein controls, and the Ki of each compound was calculated using the Cheng-Prusoff transformation. From the IC50 values were determined. The IC50 values are reported in Table 2 in the CRBN IC50 (nM) column.

[2] = target: Human BTK enzyme, wild-type (Homo sapiens (Human), UniProt Q06187); assay: BTK Screening: Btk kinase activity, electrophoretic mobility shift assay (MSA); format: biochemical; conditions: 0.5 nM BTK enzyme, 50 μM ATP, 15 minutes pre-incubation, 3 hours at 25° C.
Method: Btk kinase activity was measured in vitro using an electrophoretic mobility shift assay (MSA). The ability of Btk to phosphorylate a fluorescent peptide substrate (FAM-GEEPLYWSFPAKKK-NH2) was measured. The kinase reactions were assembled in a total volume of 25 μL per well in 384 well plates. The following was added to each well: compound buffer (or control); enzyme buffer; and substrate buffer, as further described below.
Specifically the following was added: (1) compound buffer or control: 5μL of 5× compound buffer [(5× compound buffer comprised of: 1× Master Buffer, X μM test compound in 5% dimethyl sulfoxide; (2× Master Buffer comprised of 200 mM HEPES, pH7.5, 0.2% BSA, and 0.02% Triton X-100)]; and (2) enzyme buffer: 10 μL of 2.5× enzyme buffer (1× Master Buffer, 12.5 mM MgCl2, 2.5 mM DTT, 25 μM sodium orthovanadate, 25 μM beta-glycerophosphate, and 1.25 nM BTK enzyme). Human BTK enzyme Nanosyn-293HEK, wild-type, available from Nanosyn, Santa Clara, CA). Enzyme and compound were pre-incubated for 15 minutes. Additionally, the following was added: (3) substrate buffer: 10 μL of 2.5× substrate buffer (1× Master Buffer, […], and 2.5 μM of the peptide substrate FAM). Each plate was incubated at 25° C. for 3 hours. The reaction was terminated by adding to each well: 45 μL of 1.55× stop buffer (1× Master Buffer and 31 mM EDTA). The final reaction mixture was as follows: 100 mM HEPES, pH7.5; 0.1% BSA; 0.01% Triton X-100; 1 mM DTT; 5 mM MgCl2; 10 μM sodium orthovanadate; 10 μM beta-glycerophosphate; 50 μM ATP; 1% dimethyl sulfoxide (from compound); 1μM fluorescent peptide substrate and 0.5 nM BTK- enzyme. The terminated reactions were analyzed using a 12 channel LABCHIP® 3000 microfluidic detection instrument (available from Caliper Life Sciences, Waltham, MA). […] As substrate and product peptides were separated, two peaks of fluorescence were observed. Change in the relative fluorescence intensity of the substrate and product peaks was the parameter measured, reflecting enzyme activity. In the presence of an active compound, the ratio between product and substrate was altered. The signal of the product decreased, while the signal of the substrate increased. Capillary electrophoregrams (RDA acquisition files) were analyzed using HTS Well Analyzer software (available from Caliper Life Sciences, Waltham, MA).
Activity in each sample was determined as the product to sum ratio (PSR): P/(S+P), where P was the peak height of the product peptide and S was the peak height of the substrate peptide. For each compound, enzyme activity was measured at various concentrations (12 concentrations of compound spaced by 3× dilution intervals). Negative control samples (0% inhibition in the absence of an active compound) and positive control samples (100% inhibition, in the presence of 20 mM EDTA) were assembled in replicates of four and were used to calculate % inhibition values for each active compound at each concentration. Percent inhibition (Pinh) was determined using following equation: Pinh=(PSR0%−PSRinh)/(PSR0%−PSR100%)*100, where PSRinh was the product sum ratio in the presence of inhibitor, PSR0% was the average product sum ratio in the absence of active compound and PSR100% was the average product sum ratio in 100%-inhibition control samples.
The IC50 values of active compounds were determined by 4 parameter sigmoidal dose response model fitting of the inhibition curves (Pinh versus inhibitor concentration) using XLfit® 4 software (IDBS, Boston, MA). The IC50 values are reported in Table 2 in the BTK IC50 (nM) column.

| SMILES | IC50 [1] [nM] | IC50 [2] [nM] |
| --- | --- | --- |
| Cc1cc(-c2cc(Nc3ccc(N4CCN(CCc5ccc(N6CCC(=O)NC6=O)cc5)CC4)cn3)ncn2)ccc1[C@@H](C)NC(=O)c1nc(C(C)(C)C)no1 [Example 3, 3-tert-butyl-N-{(1R)-1-[4-(6-{[5-(4-{2-[4-(2,4-dioxo-1,3-diazinan-1-yl)phenyl]ethyl}piperazin-1-yl)pyridin-2-yl]amino}pyrimidin-4-yl)-2-methylphenyl]ethyl}-1,2,4-oxadiazole-5-carboxamide] | 9570 | 0.0339 |
| Cc1cc(-c2cc(Nc3ccc(CCN4CCN(c5ccc(N6CCC(=O)NC6=O)cc5)CC4)cn3)ncn2)ccc1[C@@H](C)NC(=O)c1nc(C(C)(C)C)no1 [Example 19] | ≥ 10000 | 0.1 |
| C[C@@H](NC(=O)c1nc(C(C)(C)C)no1)c1ccc(-c2cc(Nc3ccc(N4CCN(CCc5ccc(N6CCC(=O)NC6=O)cc5)C[C@@H]4C)cn3)ncn2)cc1Cl [Example 14, 3-tert-butyl-N-[(1R)-1-{2-chloro-4-[6-({5-[(2S)-4-{2-[4-(2,4-dioxo-1,3-diazinan-1-yl)phenyl]ethyl}-2-methylpiperazin-1-yl]pyridin-2-yl}amino)pyrimidin-4-yl]phenyl}ethyl]-1,2,4-oxadiazole-5-carboxamide] | 2330 | 0.053 |
| Cc1cc(-c2cc(Nc3ccc(N4CCN(CCc5ccc(N6CCC(=O)NC6=O)cc5)CC4)cn3)ncn2)c(F)cc1[C@@H](C)NC(=O)c1nc(C(C)(C)C)no1 [Example 12, 3-tert-butyl-N-{(1R)-1-[4-(6-{[5-(4-{2-[4-(2,4-dioxo-1,3-diazinan-1-yl)phenyl]ethyl}piperazin-1-yl)pyridin-2-yl]amino}pyrimidin-4-yl)-5-fluoro-2-methylphenyl]ethyl}-1,2,4-oxadiazole-5-carboxamide] | 2010 | 0.0363 |
| CC[C@@H]1CN(CCc2ccc(N3CCC(=O)NC3=O)cc2)CCN1c1ccc(Nc2cc(-c3ccc([C@@H](C)NC(=O)c4nc(C(C)(C)C)no4)c(C)c3)ncn2)nc1 [Example 8, 3-tert-butyl-N-[(1R)-1-{4-[6-({5-[(2R)-4-{2-[4-(2,4-dioxo-1,3-diazinan-1-yl)phenyl]ethyl}-2-ethylpiperazin-1-yl]pyridin-2-yl}amino)pyrimidin-4-yl]-2-methylphenyl}ethyl]-1,2,4-oxadiazole-5-carboxamide] | 3380 | 0.0804 |
| Cc1cc(-c2cc(Nc3ccc(N4CCN(CCc5ccc(N6CCC(=O)NC6=O)cc5)C[C@@H]4C(C)C)cn3)ncn2)ccc1[C@@H](C)NC(=O)c1nc(C(C)(C)C)no1 [Example 13, 3-tert-butyl-N-[(1R)-1-{4-[6-({5-[(2S)-4-{2-[4-(2,4-dioxo-1,3-diazinan-1-yl)phenyl]ethyl}-2-(propan-2-yl)piperazin-1-yl]pyridin-2-yl}amino)pyrimidin-4-yl]-2-methylphenyl}ethyl]-1,2,4-oxadiazole-5-carboxamide] | ≥ 10000 | 0.14 |

These reach a lower IC50 [1]. Values come first.

| IC50 [1] [nM] | IC50 [2] [nM] | SMILES |
| --- | --- | --- |
| 1250 | 0.496 | Cc1cc(-c2cc(Nc3ccc(N4CCN(CCc5ccc(N6CCC(=O)NC6=O)cc5)C[C@@H]4C)cc3)ncn2)ccc1[C@@H](C)NC(=O)c1nc(C(C)(C)C)no1 [Example 18] |
| 648 | 0.113 | Cc1cc(-c2cc(Nc3ccc(N4CCN(CCc5ccc(N6CCC(=O)NC6=O)c(F)c5)C[C@H]4C)cn3)ncn2)ccc1[C@@H](C)NC(=O)c1nc(C(C)(C)C)no1 [Example 5, 3-tert-butyl-N-[(1R)-1-{4-[6-({5-[(2R)-4-{2-[4-(2,4-dioxo-1,3-diazinan-1-yl)-3-fluorophenyl]ethyl}-2-methylpiperazin-1-yl]pyridin-2-yl}amino)pyrimidin-4-yl]-2-methylphenyl}ethyl]-1,2,4-oxadiazole-5-carboxamide] |
| 1260 | 0.0977 | Cc1cc(-c2cc(Nc3ccc(N4CCN(CCc5ccc(N6CCC(=O)NC6=O)cc5)C[C@@H]4C)cn3)ncn2)ccc1[C@@H](C)NC(=O)c1nc(C(C)(C)C)no1 [Example 1, 3-tert-butyl-N-[(1R)-1-{4-[6-({5-[(2S)-4-{2-[4-(2,4-dioxo-1,3-diazinan-1-yl)phenyl]ethyl}-2-methylpiperazin-1-yl]pyridin-2-yl}amino)pyrimidin-4-yl]-2-methylphenyl}ethyl]-1,2,4-oxadiazole-5-carboxamide] |
| 749 | 0.128 | Cc1cc(-c2cc(Nc3ccc(N4CCN(CCc5ccc(N6CCC(=O)NC6=O)cc5)C[C@H]4C)cn3)ncn2)ccc1[C@@H](C)NC(=O)c1nc(C(C)(C)C)no1 [Example 2, 3-tert-butyl-N-[(1R)-1-{4-[6-({5-[(2R)-4-{2-[4-(2,4-dioxo-1,3-diazinan-1-yl)phenyl]ethyl}-2-methylpiperazin-1-yl]pyridin-2-yl}amino)pyrimidin-4-yl]-2-methylphenyl}ethyl]-1,2,4-oxadiazole-5-carboxamide] |
| 378 | 0.0403 | CC[C@H]1CN(CCc2ccc(N3CCC(=O)NC3=O)cc2)CCN1c1ccc(Nc2cc(-c3ccc([C@@H](C)NC(=O)c4nc(C(C)(C)C)no4)c(C)c3)ncn2)nc1 [Example 6, 3-tert-butyl-N-[(1R)-1-{4-[6-({5-[(2S)-4-{2-[4-(2,4-dioxo-1,3-diazinan-1-yl)phenyl]ethyl}-2-ethylpiperazin-1-yl]pyridin-2-yl}amino)pyrimidin-4-yl]-2-methylphenyl}ethyl]-1,2,4-oxadiazole-5-carboxamide] |
| 609 | 0.0979 | CC[C@H]1CN(CCc2ccc(N3CCC(=O)NC3=O)c(F)c2)CCN1c1ccc(Nc2cc(-c3ccc([C@@H](C)NC(=O)c4nc(C(C)(C)C)no4)c(C)c3)ncn2)nc1 [Example 7, 3-tert-butyl-N-[(1R)-1-{4-[6-({5-[(2S)-4-{2-[4-(2,4-dioxo-1,3-diazinan-1-yl)-3-fluorophenyl]ethyl}-2-ethylpiperazin-1-yl]pyridin-2-yl}amino)pyrimidin-4-yl]-2-methylphenyl}ethyl]-1,2,4-oxadiazole-5-carboxamide] |
| 658 | 0.0988 | Cc1cc(-c2cc(Nc3ccc(N4CCN(CCc5ccc(N6CCC(=O)NC6=O)cc5)CC4(C)C)cn3)ncn2)ccc1[C@@H](C)NC(=O)c1nc(C(C)(C)C)no1 [Example 9, 3-tert-butyl-N-{(1R)-1-[4-(6-{[5-(4-{2-[4-(2,4-dioxo-1,3-diazinan-1-yl)phenyl]ethyl}-2,2-dimethylpiperazin-1-yl)pyridin-2-yl]amino}pyrimidin-4-yl)-2-methylphenyl]ethyl}-1,2,4-oxadiazole-5-carboxamide] |
